Results: patent US20250243171A1, “QUINAZOLINE COMPOUNDS FOR TREATMENT OF DISEASE” (Arthrosi Therapeutics, Inc., priority 2021, published 2025)

Tests used:
Assay in all cases: EC50 assay: Ba/F3 stable cell proliferation (CCK-8, 72 h)
Format in all cases: cell-based
Ba/F3 stable cells [1] = target: T1, Ba/F3 stable cells (Homo sapiens, UniProt P00533, DUP767-769, cells depend on it); conditions: Ba/F3-EGFR V769-D770insASV cells
T1 construct: EC50 Ba/F3-EGFR V769-D770insASV; other: Ba/F3-EGFR V769-D770insASV cells, 72 h, CCK-8
T1 sequence (P00533 with tags, fused parts or gaps DUP767-769): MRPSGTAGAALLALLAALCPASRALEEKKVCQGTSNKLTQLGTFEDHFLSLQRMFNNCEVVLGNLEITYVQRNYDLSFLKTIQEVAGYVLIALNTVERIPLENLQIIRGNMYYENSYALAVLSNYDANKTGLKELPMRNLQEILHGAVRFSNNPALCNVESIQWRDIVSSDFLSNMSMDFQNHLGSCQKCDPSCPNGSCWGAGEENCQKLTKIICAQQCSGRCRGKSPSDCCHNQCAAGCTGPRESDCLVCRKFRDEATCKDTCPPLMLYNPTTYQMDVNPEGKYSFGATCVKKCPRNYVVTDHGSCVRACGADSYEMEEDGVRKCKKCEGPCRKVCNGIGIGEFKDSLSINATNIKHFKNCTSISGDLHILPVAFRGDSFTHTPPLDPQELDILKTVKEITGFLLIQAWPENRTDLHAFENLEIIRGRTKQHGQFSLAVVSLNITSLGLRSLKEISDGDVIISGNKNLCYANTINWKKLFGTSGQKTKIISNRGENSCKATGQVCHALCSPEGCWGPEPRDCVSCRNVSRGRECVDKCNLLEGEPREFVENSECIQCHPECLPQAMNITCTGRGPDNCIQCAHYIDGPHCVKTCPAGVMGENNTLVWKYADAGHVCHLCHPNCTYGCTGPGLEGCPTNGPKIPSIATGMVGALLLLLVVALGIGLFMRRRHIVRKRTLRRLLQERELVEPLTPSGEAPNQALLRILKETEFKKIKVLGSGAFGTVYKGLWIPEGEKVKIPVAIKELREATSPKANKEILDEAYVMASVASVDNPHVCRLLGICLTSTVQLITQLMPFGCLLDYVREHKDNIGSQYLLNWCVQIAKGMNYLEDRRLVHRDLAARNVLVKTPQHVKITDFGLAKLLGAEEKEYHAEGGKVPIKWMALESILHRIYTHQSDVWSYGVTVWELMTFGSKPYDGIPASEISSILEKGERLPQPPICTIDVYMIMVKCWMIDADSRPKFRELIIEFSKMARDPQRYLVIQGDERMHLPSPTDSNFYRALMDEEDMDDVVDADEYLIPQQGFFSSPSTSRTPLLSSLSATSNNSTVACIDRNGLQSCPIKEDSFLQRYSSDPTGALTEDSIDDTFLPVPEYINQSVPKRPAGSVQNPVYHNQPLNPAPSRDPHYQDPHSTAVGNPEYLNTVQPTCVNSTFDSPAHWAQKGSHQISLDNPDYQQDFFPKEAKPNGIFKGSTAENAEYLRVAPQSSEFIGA
In short: (§1)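 Ba/F3 stable cells were seeded at 4,000 cells/90 μL/well in 96-well plates and held 2 h at 37° C. in 5% CO2, then given 10 μL of serially titrated compound (0.1% DMSO final). After 72 h at 37° C., CCK-8 reagent was added for 4 hours and absorbance read at 450 nm to derive EC50.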

Ba/F3 stable cells [2] = target: T2, Ba/F3 stable cells (Homo sapiens, UniProt P00533, DUP768-770, cells depend on it); conditions: Ba/F3-EGFR D770-N771insSVD cells
T2 construct: EC50 Ba/F3-EGFR D770-N771insSVD; other: Ba/F3-EGFR D770-N771insSVD cells, 72 h, CCK-8
In short: as §1

Ba/F3 stable cells [3] = target: T3, Ba/F3 stable cells (Homo sapiens, UniProt P00533, DUP771-773, cells depend on it); conditions: Ba/F3-EGFR H773-V774insNPH cells
T3 construct: EC50 Ba/F3-EGFR H773-V774insNPH; other: Ba/F3-EGFR H773-V774insNPH cells, 72 h, CCK-8
In short: as §1

Ba/F3 stable cells [4] = target: T4, Ba/F3 stable cells (Homo sapiens, UniProt P00533, INS763FQEA, cells depend on it); conditions: Ba/F3-EGFR A763-Y764insFQEA cells
T4 construct: EC50 Ba/F3-EGFR A763-Y764insFQEA; other: Ba/F3-EGFR A763-Y764insFQEA cells, 72 h, CCK-8
T4 sequence (P00533 with tags, fused parts or gaps INS763FQEA): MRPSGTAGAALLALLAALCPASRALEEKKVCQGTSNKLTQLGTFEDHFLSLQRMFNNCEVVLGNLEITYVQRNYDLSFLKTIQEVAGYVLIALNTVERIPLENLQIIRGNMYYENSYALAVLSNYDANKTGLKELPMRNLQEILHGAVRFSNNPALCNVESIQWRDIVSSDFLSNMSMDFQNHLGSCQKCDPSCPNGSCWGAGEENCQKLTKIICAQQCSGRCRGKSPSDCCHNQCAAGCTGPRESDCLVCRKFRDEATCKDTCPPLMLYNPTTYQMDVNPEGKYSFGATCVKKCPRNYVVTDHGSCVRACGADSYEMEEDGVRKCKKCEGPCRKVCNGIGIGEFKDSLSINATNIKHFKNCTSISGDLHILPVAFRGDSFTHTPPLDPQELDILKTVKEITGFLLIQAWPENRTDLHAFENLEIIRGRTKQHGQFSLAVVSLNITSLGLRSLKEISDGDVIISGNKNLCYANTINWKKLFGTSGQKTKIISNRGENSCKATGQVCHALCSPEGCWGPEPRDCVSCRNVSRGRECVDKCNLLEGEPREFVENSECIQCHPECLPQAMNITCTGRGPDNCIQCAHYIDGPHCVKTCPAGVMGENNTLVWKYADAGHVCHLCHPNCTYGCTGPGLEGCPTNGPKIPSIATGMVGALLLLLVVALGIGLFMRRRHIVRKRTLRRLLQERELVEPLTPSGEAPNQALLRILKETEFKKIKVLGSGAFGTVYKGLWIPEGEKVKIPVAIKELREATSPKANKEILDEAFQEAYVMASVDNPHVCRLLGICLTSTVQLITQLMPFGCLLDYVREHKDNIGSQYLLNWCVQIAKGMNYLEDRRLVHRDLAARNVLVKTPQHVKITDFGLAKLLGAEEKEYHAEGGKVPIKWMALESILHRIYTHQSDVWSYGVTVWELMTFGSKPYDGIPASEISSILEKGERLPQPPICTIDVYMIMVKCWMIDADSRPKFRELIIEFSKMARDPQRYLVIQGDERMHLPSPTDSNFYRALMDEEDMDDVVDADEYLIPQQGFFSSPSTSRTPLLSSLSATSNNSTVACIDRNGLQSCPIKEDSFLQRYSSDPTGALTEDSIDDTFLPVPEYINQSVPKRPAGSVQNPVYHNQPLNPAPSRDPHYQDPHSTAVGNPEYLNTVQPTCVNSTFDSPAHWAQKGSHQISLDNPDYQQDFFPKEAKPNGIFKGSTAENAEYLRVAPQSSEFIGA
In short: as §1

Ba/F3 stable cells [5] = target: T5, Ba/F3 stable cells (Homo sapiens, UniProt P00533, T790M/L858R, cells depend on it); conditions: Ba/F3-EGFR L858R-T790M cells
T5 construct: EC50 Ba/F3-EGFR L858R-T790M; other: Ba/F3-EGFR L858R-T790M cells, 72 h, CCK-8
T5 sequence (P00533 whole entry T790M/L858R): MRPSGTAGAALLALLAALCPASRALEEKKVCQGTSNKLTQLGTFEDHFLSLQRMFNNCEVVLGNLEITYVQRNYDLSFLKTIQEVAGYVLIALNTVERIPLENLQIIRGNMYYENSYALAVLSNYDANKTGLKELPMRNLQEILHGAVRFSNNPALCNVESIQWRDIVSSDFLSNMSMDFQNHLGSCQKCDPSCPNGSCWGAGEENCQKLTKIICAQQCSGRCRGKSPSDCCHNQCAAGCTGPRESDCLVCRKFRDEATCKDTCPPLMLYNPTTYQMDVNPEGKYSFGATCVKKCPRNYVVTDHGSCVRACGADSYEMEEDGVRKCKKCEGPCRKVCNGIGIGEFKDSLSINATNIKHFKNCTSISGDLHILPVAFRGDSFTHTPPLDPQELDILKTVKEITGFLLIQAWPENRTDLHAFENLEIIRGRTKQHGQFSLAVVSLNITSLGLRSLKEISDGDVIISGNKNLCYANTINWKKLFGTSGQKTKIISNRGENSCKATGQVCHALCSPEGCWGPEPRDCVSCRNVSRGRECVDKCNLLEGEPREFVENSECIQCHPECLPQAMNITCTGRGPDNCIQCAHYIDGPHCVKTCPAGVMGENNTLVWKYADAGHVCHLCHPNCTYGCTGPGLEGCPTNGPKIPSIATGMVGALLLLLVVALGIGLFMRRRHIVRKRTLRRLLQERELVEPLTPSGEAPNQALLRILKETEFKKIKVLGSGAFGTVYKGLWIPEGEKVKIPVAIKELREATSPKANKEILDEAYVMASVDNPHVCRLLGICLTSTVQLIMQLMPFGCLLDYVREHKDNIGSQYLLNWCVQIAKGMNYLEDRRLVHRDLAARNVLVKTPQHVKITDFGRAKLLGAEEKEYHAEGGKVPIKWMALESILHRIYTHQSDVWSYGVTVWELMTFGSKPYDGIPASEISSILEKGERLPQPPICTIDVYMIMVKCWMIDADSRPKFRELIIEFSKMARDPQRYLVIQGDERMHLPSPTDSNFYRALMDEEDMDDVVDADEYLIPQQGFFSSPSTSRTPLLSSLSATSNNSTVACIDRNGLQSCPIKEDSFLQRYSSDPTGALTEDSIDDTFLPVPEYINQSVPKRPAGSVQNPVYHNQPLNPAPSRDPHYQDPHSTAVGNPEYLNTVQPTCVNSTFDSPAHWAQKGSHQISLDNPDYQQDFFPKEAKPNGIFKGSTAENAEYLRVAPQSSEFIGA
In short: as §1

Ba/F3 stable cells [6] = target: T6, Ba/F3 stable cells (Homo sapiens, UniProt P04626, DUP772-775, cells depend on it); conditions: Ba/F3-HER2 A775-G776insYVMA cells
T6 construct: EC50 Ba/F3-HER2 A775-G776insYVMA; other: Ba/F3-HER2 A775-G776insYVMA cells, 72 h, CCK-8
T6 sequence (P04626 with tags, fused parts or gaps DUP772-775): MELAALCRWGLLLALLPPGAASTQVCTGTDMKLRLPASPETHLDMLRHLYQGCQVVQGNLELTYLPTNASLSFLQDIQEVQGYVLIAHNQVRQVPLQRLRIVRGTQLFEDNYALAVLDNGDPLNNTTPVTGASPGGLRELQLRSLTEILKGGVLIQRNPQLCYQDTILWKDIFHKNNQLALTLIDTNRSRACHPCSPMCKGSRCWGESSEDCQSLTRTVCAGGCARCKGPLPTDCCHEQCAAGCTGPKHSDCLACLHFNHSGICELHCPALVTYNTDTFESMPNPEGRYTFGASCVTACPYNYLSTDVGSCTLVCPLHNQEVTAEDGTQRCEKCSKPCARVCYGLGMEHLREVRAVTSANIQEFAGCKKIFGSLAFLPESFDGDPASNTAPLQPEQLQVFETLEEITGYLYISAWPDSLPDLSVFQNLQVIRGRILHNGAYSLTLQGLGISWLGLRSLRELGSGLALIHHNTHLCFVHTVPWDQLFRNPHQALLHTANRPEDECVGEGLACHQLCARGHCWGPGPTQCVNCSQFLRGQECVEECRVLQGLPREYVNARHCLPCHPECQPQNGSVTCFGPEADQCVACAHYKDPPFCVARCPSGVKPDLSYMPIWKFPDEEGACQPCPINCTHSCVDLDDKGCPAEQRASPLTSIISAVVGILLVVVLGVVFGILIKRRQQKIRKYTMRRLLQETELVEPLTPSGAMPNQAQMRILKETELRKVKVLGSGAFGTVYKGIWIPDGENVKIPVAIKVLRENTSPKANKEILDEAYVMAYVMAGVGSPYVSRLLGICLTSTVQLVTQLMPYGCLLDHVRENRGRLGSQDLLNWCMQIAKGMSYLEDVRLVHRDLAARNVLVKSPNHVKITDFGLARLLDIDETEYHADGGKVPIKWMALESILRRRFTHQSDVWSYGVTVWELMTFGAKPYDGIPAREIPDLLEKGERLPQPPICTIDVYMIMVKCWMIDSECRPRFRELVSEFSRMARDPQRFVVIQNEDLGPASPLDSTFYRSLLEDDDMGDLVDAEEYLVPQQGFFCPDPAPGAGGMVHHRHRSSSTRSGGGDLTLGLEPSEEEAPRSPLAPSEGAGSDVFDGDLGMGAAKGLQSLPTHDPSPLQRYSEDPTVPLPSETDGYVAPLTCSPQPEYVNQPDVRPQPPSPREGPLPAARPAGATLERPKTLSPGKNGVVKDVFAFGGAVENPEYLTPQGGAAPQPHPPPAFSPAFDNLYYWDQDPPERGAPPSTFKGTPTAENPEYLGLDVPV
In short: as §1

Compound	EC50 (Ba/F3 stable cells [1])	EC50 (Ba/F3 stable cells [2])	EC50 (Ba/F3 stable cells [3])	EC50 (Ba/F3 stable cells [4])	EC50 (Ba/F3 stable cells [5])	EC50 (Ba/F3 stable cells [6])
C=CC(=O)N1CCC(Oc2cc3c(Nc4cc5oc6ccccc6c5cc4OC)ncnc3cc2OC)CC1 [Compound 151, 1-(4-((7-methoxy-4-((2-methoxydibenzo[b,d]furan-3-yl)amino)quinazolin-6-yl)oxy)piperidin-1-yl)prop-2-en-1-one]	> 1000 nM	> 1000 nM	> 1000 nM	> 1000 nM	> 1000 nM	> 1000 nM
C=CC(=O)N1CCC(Oc2cc3c(Nc4ccc5c(c4)OCO5)ncnc3cc2OC)CC1 [Compound 152, 1-(4-((4-(benzo[d][1,3]dioxol-5-ylamino)-7-methoxyquinazolin-6-yl)oxy)piperidin-1-yl)prop-2-en-1-one]	200 to 1000 nM	200 to 1000 nM	200 to 1000 nM	≤ 200 nM	200 to 1000 nM	≤ 200 nM
C=CC(=O)N1CCC(Oc2cc3c(Nc4ccc5sc(C)nc5c4)ncnc3cc2OC)CC1 [Compound 155, 1-(4-((7-methoxy-4-((2-methylbenzo[d]thiazol-5-yl)amino)quinazolin-6-yl)oxy)piperidin-1-yl)prop-2-en-1-one]	> 1000 nM	> 1000 nM	> 1000 nM	≤ 200 nM	200 to 1000 nM	200 to 1000 nM
C=CC(=O)N1CCC(Oc2cc3c(Nc4ccc5ccccc5n4)ncnc3cc2OC)CC1 [Compound 158, 1-(4-((7-methoxy-4-(quinolin-2-ylamino)quinazolin-6-yl)oxy)piperidin-1-yl)prop-2-en-1-one]	200 to 1000 nM	> 1000 nM	200 to 1000 nM	≤ 200 nM	≤ 200 nM	> 1000 nM
C=CC(=O)N1CCC(Oc2cc3c(Nc4cc5ccccc5cn4)ncnc3cc2OC)CC1 [Compound 159, 1-(4-((4-(isoquinolin-3-ylamino)-7-methoxyquinazolin-6-yl)oxy)piperidin-1-yl)prop-2-en-1-one]	200 to 1000 nM	> 1000 nM	200 to 1000 nM	≤ 200 nM	200 to 1000 nM	200 to 1000 nM
C=CC(=O)N1CCC(Oc2cc3c(Nc4nccc5ccccc45)ncnc3cc2OC)CC1 [Compound 161, 1-(4-((4-(isoquinolin-1-ylamino)-7-methoxyquinazolin-6-yl)oxy)piperidin-1-yl)prop-2-en-1-one]	200 to 1000 nM	> 1000 nM	200 to 1000 nM	≤ 200 nM	200 to 1000 nM	> 1000 nM
C=CC(=O)N1CCC(Oc2cc3c(Nc4cccc5[nH]ccc45)ncnc3cc2OC)CC1 [Compound 165, 1-(4-((4-((1H-indol-4-yl)amino)-7-methoxyquinazolin-6-yl)oxy)piperidin-1-yl)prop-2-en-1-one]	200 to 1000 nM	> 1000 nM	200 to 1000 nM	≤ 200 nM	200 to 1000 nM	> 1000 nM
C=CC(=O)N1CCC(Oc2cc3c(Nc4ccc(C)c5ccccc45)ncnc3cc2OC)CC1 [Compound 167, 1-(4-((7-methoxy-4-((4-methylnaphthalen-1-yl)amino)quinazolin-6-yl)oxy)piperidin-1-yl)prop-2-en-1-one]	200 to 1000 nM	> 1000 nM	200 to 1000 nM	≤ 200 nM	≤ 200 nM	200 to 1000 nM
C=CC(=O)N1CCC(Oc2cc3c(Nc4ccc5c(ccn5C)c4)ncnc3cc2OC)CC1 [Compound 170, 1-(4-((7-methoxy-4-((1-methyl-1H-indol-5-yl)amino)quinazolin-6-yl)oxy)piperidin-1-yl)prop-2-en-1-one]	200 to 1000 nM	> 1000 nM	200 to 1000 nM	≤ 200 nM	≤ 200 nM	200 to 1000 nM

The remaining lines, values ahead:

EC50 (Ba/F3 stable cells [1])	EC50 (Ba/F3 stable cells [2])	EC50 (Ba/F3 stable cells [3])	EC50 (Ba/F3 stable cells [4])	EC50 (Ba/F3 stable cells [5])	EC50 (Ba/F3 stable cells [6])	Compound
≤ 200 nM	≤ 200 nM	≤ 200 nM	≤ 200 nM	≤ 200 nM	200 to 1000 nM	C=CC(=O)N1CCC(Oc2cc3c(Nc4ccc5ccccc5c4)ncnc3cc2OC)CC1 [Compound 148, 1-(4-((7-methoxy-4-(naphthalen-2-ylamino)quinazolin-6-yl)oxy)piperidin-1-yl)prop-2-en-1-one]
≤ 200 nM	≤ 200 nM	≤ 200 nM	≤ 200 nM	≤ 200 nM	≤ 200 nM	C=CC(=O)N1CCC(Oc2cc3c(Nc4cccc5ccccc45)ncnc3cc2OC)CC1 [Compound 149, 1-(4-((7-methoxy-4-(naphthalen-1-ylamino)quinazolin-6-yl)oxy)piperidin-1-yl)prop-2-en-1-one]
200 to 1000 nM	> 1000 nM	200 to 1000 nM	≤ 200 nM	> 1000 nM	> 1000 nM	C=CC(=O)N1CCC(Oc2cc3c(Nc4ccc5[nH]ncc5c4)ncnc3cc2OC)CC1 [Compound 150, 1-(4-((4-((1H-indazol-5-yl)amino)-7-methoxyquinazolin-6-yl)oxy)piperidin-1-yl)prop-2-en-1-one]
≤ 200 nM	200 to 1000 nM	200 to 1000 nM	≤ 200 nM	200 to 1000 nM	200 to 1000 nM	C=CC(=O)N1CCC(Oc2cc3c(Nc4ccc5c(c4)CCC5)ncnc3cc2OC)CC1 [Compound 153, 1-(4-((4-((2,3-dihydro-1H-inden-5-yl)amino)-7-methoxyquinazolin-6-yl)oxy)piperidin-1-yl)prop-2-en-1-one]
≤ 200 nM	200 to 1000 nM	≤ 200 nM	≤ 200 nM	200 to 1000 nM	≤ 200 nM	C=CC(=O)N1CCC(Oc2cc3c(Nc4cccc5c4CCC5)ncnc3cc2OC)CC1 [Compound 156, 1-(4-((4-((2,3-dihydro-1H-inden-4-yl)amino)-7-methoxyquinazolin-6-yl)oxy)piperidin-1-yl)prop-2-en-1-one]
≤ 200 nM	> 1000 nM	200 to 1000 nM	≤ 200 nM	200 to 1000 nM	> 1000 nM	C=CC(=O)N1CCC(Oc2cc3c(Nc4ccc5ccccc5c4Cl)ncnc3cc2OC)CC1 [Compound 160, 1-(4-((4-((1-chloronaphthalen-2-yl)amino)-7-methoxyquinazolin-6-yl)oxy)piperidin-1-yl)prop-2-en-1-one]
≤ 200 nM	> 1000 nM	200 to 1000 nM	≤ 200 nM	≤ 200 nM	200 to 1000 nM	C=CC(=O)N1CCC(Oc2cc3c(Nc4ccnc5ccccc45)ncnc3cc2OC)CC1 [Compound 162, 1-(4-((7-methoxy-4-(quinolin-4-ylamino)quinazolin-6-yl)oxy)piperidin-1-yl)prop-2-en-1-one]
≤ 200 nM	200 to 1000 nM	200 to 1000 nM	≤ 200 nM	≤ 200 nM	200 to 1000 nM	C=CC(=O)N1CCC(Oc2cc3c(Nc4ccc(Cl)c5ccccc45)ncnc3cc2OC)CC1 [Compound 164, 1-(4-((4-((4-chloronaphthalen-1-yl)amino)-7-methoxyquinazolin-6-yl)oxy)piperidin-1-yl)prop-2-en-1-one]
≤ 200 nM	> 1000 nM	≤ 200 nM	≤ 200 nM	200 to 1000 nM	≤ 200 nM	C=CC(=O)N1CCC(Oc2cc3c(Nc4cccc5cc[nH]c45)ncnc3cc2OC)CC1 [Compound 166, 1-(4-((4-((1H-indol-7-yl)amino)-7-methoxyquinazolin-6-yl)oxy)piperidin-1-yl)prop-2-en-1-one]
≤ 200 nM	200 to 1000 nM	≤ 200 nM	≤ 200 nM	> 1000 nM	≤ 200 nM	C=CC(=O)N1CCC(Oc2cc3c(Nc4ccc5c(c4)CCN5)ncnc3cc2OC)CC1 [Compound 168, 1-(4-((4-(indolin-5-ylamino)-7-methoxyquinazolin-6-yl)oxy)piperidin-1-yl)prop-2-en-1-one]
≤ 200 nM	200 to 1000 nM	≤ 200 nM	≤ 200 nM	200 to 1000 nM	≤ 200 nM	C=CC(=O)N1CCC(Oc2cc3c(Nc4ccc5[nH]ccc5c4)ncnc3cc2OC)CC1 [Compound 169, 1-(4-((4-((1H-indol-5-yl)amino)-7-methoxyquinazolin-6-yl)oxy)piperidin-1-yl)prop-2-en-1-one]
≤ 200 nM	200 to 1000 nM	200 to 1000 nM	≤ 200 nM	> 1000 nM	≤ 200 nM	C=CC(=O)N1CCC(Oc2cc3c(NCc4ccc(F)cc4)ncnc3cc2OC)CC1 [Compound 172, 1-(4-((4-((4-fluorobenzyl)amino)-7-methoxyquinazolin-6-yl)oxy)piperidin-1-yl)prop-2-en-1-one]
